Results on three compounds are retold here after patent US7550458B2, “Tricycloundecane compounds useful as modulators of nuclear hormone receptor function” (Bristol-Myers Squibb Company, priority 2005, dated 2009).

Like-named read-outs stand apart in the source and are kept apart here.

For assay [1], the system named is wild type AR. The experiment in a line: AR whole cell binding assay, saturation analysis, MDA 453 cells. On the set-up: species or system human. The note with it: read-out: Kd for [^3H]-DHT, Scatchard analysis.
Assay [2] concerns the target glucocorticoid receptor (Homo sapiens, UniProt P04150). The conditions noted are these: at a concentration of ≦10 μM, A549 cells. How it is done: Cells are plated the day before the assay at approximately 40000 cells/well. […] Activity is measured by analysis in a luminometer as compared to control experiments treated with buffer or dexamethasome.
Assay [3] has as its target T1, AR (Rattus norvegicus, UniProt P15207).
T1 sequence (P15207 1-902): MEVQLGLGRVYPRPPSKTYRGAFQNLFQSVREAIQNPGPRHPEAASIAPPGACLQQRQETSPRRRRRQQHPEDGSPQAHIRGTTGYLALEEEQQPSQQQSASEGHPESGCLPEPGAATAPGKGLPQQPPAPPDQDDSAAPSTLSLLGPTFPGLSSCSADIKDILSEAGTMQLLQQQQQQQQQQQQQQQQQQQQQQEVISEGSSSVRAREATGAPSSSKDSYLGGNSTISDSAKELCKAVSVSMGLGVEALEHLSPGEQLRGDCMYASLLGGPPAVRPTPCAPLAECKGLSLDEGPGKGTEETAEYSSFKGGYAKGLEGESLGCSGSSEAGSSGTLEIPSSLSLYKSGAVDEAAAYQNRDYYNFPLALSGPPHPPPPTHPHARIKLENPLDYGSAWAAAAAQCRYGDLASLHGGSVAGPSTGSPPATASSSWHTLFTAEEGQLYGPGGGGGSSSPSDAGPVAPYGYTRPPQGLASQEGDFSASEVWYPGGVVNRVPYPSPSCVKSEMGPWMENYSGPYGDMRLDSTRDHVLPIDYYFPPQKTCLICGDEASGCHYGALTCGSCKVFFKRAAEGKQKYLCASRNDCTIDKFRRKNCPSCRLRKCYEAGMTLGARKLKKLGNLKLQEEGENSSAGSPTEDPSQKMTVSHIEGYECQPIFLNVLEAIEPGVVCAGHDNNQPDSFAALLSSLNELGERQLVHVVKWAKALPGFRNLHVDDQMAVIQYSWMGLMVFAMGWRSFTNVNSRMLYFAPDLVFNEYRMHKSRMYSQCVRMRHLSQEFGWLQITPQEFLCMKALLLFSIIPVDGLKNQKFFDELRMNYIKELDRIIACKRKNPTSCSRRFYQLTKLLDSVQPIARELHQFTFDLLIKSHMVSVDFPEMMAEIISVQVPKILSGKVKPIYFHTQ

In assay [4] the target is T1, AR. The note with it: castrated rats, dosing for 3 days.

Chain of glucocorticoid receptor (P04150 whole entry): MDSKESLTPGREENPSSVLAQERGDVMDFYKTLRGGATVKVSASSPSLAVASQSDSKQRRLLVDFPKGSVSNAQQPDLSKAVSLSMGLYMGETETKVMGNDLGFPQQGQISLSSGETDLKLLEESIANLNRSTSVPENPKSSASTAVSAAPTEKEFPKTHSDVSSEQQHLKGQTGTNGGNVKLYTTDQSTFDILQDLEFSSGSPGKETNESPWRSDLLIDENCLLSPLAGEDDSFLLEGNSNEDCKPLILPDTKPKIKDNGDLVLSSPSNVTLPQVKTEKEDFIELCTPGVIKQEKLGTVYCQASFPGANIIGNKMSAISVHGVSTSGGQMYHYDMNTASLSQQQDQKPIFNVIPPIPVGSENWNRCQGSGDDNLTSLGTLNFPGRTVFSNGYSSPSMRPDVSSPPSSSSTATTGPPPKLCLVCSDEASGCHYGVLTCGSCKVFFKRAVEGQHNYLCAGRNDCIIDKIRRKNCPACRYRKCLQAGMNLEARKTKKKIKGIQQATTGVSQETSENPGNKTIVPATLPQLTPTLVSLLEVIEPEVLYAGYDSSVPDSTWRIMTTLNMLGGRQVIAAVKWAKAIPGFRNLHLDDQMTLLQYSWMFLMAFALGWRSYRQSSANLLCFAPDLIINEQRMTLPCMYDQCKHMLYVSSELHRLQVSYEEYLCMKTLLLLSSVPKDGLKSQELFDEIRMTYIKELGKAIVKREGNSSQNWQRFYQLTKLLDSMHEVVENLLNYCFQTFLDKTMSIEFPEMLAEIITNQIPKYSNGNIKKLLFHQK

A word on the Kd: it is the equilibrium constant for the complex coming apart. Turning to `C[C@]12CCC(=O)C[C@@H]1CC[C@@H]1[C@@H]2CC[C@]2(C)[C@@H](O)CC[C@@H]12` [[^3H]-DHT], the Kd in assay [1] amounted to […]. Turning to `C[C@@H]1C[C@H]2[C@@H]3CCC4=CC(=O)C=C[C@]4(C)[C@@]3(F)[C@@H](O)C[C@]2(C)[C@@]1(O)C(=O)CO` [dexamethasone], the “suppression of activity (% inhibition of the reporter system vs buffer control with 10 ng/ml PMA)” value in assay [2] is on record as ~65%. `CCC(=O)O[C@H]1CC[C@H]2[C@@H]3CCC4=CC(=O)CC[C@]4(C)[C@H]3CC[C@]12C` [TP, testosterone propionate]: the “ED80 of TP” value in assay [3] (immature castrated rat model) was found to be 0.1 mg. The “EC50 (increase in organ weight)” value in assay [3] (immature castrated rats, dosing for 3 days) is ~0.03 mg; in assay [4], ~0.03 mg.
